From patent US5856175A, “Device for detecting microorganisms” (priority 1996, dated 1999)
Where two headings read alike, the source gives them in different places.

Experiments:
Assay type in all cases: cell-based
Escherichia coli 29194 = experiment: Antimicrobial susceptibility pattern using silicone-emulsion CO2 sensors (Table 4)
Description: (§1) Microtiter plates (96 flat bottom wells) containing 0.05% Xylenol blue silicone-emulsion sensors on the bottom were filled with 100 microliters of microbial growth medium containing no antibiotics (growth control wells) and nine different classes of antibiotics. Final concentrations of the antibiotics were achieved after addition of 100 microliters of inoculum (final inoculum of 5×10^7 CFU/ml) of the representative microorganisms. The concentrations of antibiotics used represent those used in determining if the test organism is sensitive, intermediate, or resistant to a particular antibiotic.
(§2) After inoculating the microtiter tray, it was sealed with a pressure sensitive plastic plate sealer and initial readings were taken with a reflectance reader. The plate was then placed into a 37° C. incubator. After four hours incubation, the plate was removed and final reflectance readings were taken.
(§3) The results in Table 4 show a pattern of growth, no growth, or intermediate growth of the four test organisms with the nine classes of antibiotics. This is indicative of the type of susceptibility of the organisms to the antibiotics. The organisms tested vary in their susceptibility pattern because of differences in their physiological makeup.

[1] = test system: Pseudomonas aeruginosa 27853; experiment: as above
Description: as §1, §2, §3

[2] = test system: Staphylococcus aureus 25923; experiment: as above
Description: as §1, §2, §3

[3] = test system: Streptococcus faecalis 29212; experiment: as above
Description: as §1, §2, §3

[4] = test system: Alcaligenes odorans 33585; experiment: Pattern of inhibition using silicone-emulsion CO2 sensors (Table 3); details: 5.4 mcg; 4 h, 37° C.; 5×10^7 CFU/ml
Description: (§4) Microbial identification using the described CO2 sensors can also be based on the principle of growth inhibition. This system differs from the classical biochemical identification systems, as identification is based on selective growth inhibition by inhibitory agents, such as dyes, antibiotics, and other substances. Once again, the production of CO2 is the measure of growth. The growth pattern produced in the presence of these inhibitory agents identifies the species of the test microorganism. The amount of growth is compared with a growth control well that contains no inhibitor. A profile is derived using a two-stage quadratic discriminate analysis based on the results derived from the battery of inhibitory agents.
(§5) Microtiter plates (96 flat bottom wells) containing 0.05% xylenol blue silicone-emulsion sensors were filled with 100 microliters of microbial growth medium containing no inhibitors (growth control wells) and eighteen different dyes, antibiotics, and other inhibitory substances. Final concentrations of the inhibitors were achieved after addition of 100 microliters of inoculum (final inoculum of 5×10^7 CFU/ml) of the representative microorganisms.
as §2

Escherichia coli 33582 = experiment: as above; details: 5.4 mcg; 4 h, 37° C.; 5×10^7 CFU/ml
Description: as §4, §5, §2

Proteus mirabilis 33583 = experiment: as above; details: 5.4 mcg; 4 h, 37° C.; 5×10^7 CFU/ml
Description: as §4, §5, §2

[5] = test system: Pseudomonas aeruginosa 33584; experiment: as above; details: 5.4 mcg; 4 h, 37° C.; 5×10^7 CFU/ml
Description: as §4, §5, §2

[6] = test system: Escherichia coli (ATCC number 11775); experiment: Carbon source utilization in carbon dioxide sensor plates (Example 6); details: 0.5% bromosuccinic acid
Protocol: (§6) 50 ml Kodak Universal Indicator was evaporated to dryness and resuspended in 2 ml HPCL grade isopropanol. 240 mg of phenolphthalein, sodium salt, dissolved in 2 ml of water was added to 1 ml of the concentrated Universal Indicator solution. 150 microliters of CAPS buffer (3-{cyclohexlamino}-1-propanesulfonic acid), pH 10.4, 500 mM was mixed with the phenolphthalein/Universal Indicator solution. This solution was added to 10 grams of GE RTV 615 A silicone that had been degassed for approximately 15 minutes. The silicone and indicator emulsion was mixed by hand stirring. 0.1 grams of white silicone pigment and 2 grams of GE RTV 615 B was added to the mixture. The mixture was hand mixed and degassed for approximately 5 minutes. The emulsion was transferred into a pressurized syringe dispenser fitted to an "air brush" sprayer and sprayed into a polystyrene 24 well plate that had previously been sprayed with 2 coats of GE silicone primer SS 4120. Enough of the indicator/silicone emulsion was sprayed into the wells to coat the bottom surface. The plate was then placed in a humidified oven and cured at 50° C. overnight. This spraying process was repeated on 3 consecutive days for a total of 3 coatings to the wells.
(§7) Two organisms, Escherichia coli (ATCC number 11775) and Pseudomonas aeruginosa (ATCC number 1014), both type strains, were grown overnight (17 hours) in a complex medium as described in Example 3 C, at 37° C., with shaking. The organisms were harvested, spun down at 11950-X-g, at 4° C. for 20 minutes. The supernatant was poured off and the organisms were resuspended in 0.9% sterile saline to an OD600 =5.0.
(§8) Each well of the prepared microtiter plate contained 1 ml of one of the following three media:
(§9) a) a minimal medium buffered with 50 mM Hepes buffer, pH 7.2, containing no carbon source (the negative control);
(§10) b) the same medium as the negative control except that it contained 0.5% bromosuccinic acid; and
(§11) c) an undefined medium Trypticase soy yeast extract medium, buffered with 50 mM Hepes, pH 7.2 (the positive control).
(§12) Twenty microliters of each prepared organism was added to duplicate wells of each type of media.
(§13) The wells were sealed with cork stoppers and the plate was incubated at 37° C. Color changes of the sensor on the bottom of the plate were monitored by eye over a 6 hour period. After approximately 4 hours, two distinct patterns could be seen. […] The positive control wells for E. coli changed from purple to green to yellow to orange, indicating a pH change of the sensor from 10 to approximately 6. The positive control well for P. aeruginosa changed from purple to green to yellow (a pH change of the sensor from 10 to approximately 7). The wells with the bromosuccinic acid medium gave the most distinction between the two organisms. […]

[7] = test system: Pseudomonas aeruginosa (ATCC number 1014); experiment: as above; details: 0.5% bromosuccinic acid
Protocol: as §6, §7, §8, §9, §10, §11, §12, §13

[8] = Escherichia coli, 29194, 4 h, read-out: Percent growth as compared to a growth control without antibiotics
[9] = Pseudomonas aeruginosa, 27853, 4 h, read-out: Percent growth as compared to a growth control without antibiotics
[10] = Staphylococcus aureus, 25923, 4 h, read-out: Percent growth as compared to a growth control without antibiotics
[11] = Enterococcus faecalis, 29212, 4 h, read-out: Percent growth as compared to a growth control without antibiotics
[12] = 0.2 units, 4 h, 37° C., 5×10^7 CFU/ml

`CCn1cc(C(=O)O)c(=O)c2ccc(C)nc21` [Nalidixic acid] showed an activity at 15 µg/mL (Escherichia coli 29194; [8]) of 18%, an activity at 15 µg/mL [1, 9] of 109% and an activity at 15 µg/mL [2, 10] of 80%. The activity at 15 µg/mL [3, 11] was 116%.

With `NC[C@H]1O[C@H](O[C@H]2[C@H](O)[C@@H](O[C@H]3O[C@H](CO)[C@@H](O)[C@H](N)[C@H]3O)[C@H](N)C[C@@H]2N)[C@H](O)[C@@H](O)[C@@H]1O` [Kanamycin] the “Percent growth as compared to a growth control without antibiotics” value [4] was 95%, the “Percent growth as compared to a growth control without antibiotics” value (Escherichia coli 33582) was 66% and the “Percent growth as compared to a growth control without antibiotics” value (Proteus mirabilis 33583) was 44%. The “Percent growth as compared to a growth control without antibiotics” value [5] was 105%, the activity at 22 µg/mL (Escherichia coli 29194; [8]) was 91% and the activity at 22 µg/mL [1, 9] was 72%. It also gave an activity at 22 µg/mL [2, 10] of 13% and an activity at 22 µg/mL [3, 11] of 95%.

`COc1cccc(OC)c1C(=O)N[C@@H]1C(=O)N2[C@@H]1SC(C)(C)[C@@H]2C(=O)O` [Methicillin] gave an activity at 5 µg/mL (Escherichia coli 29194; Escherichia coli, 29194, 5 mcg (per milliliter), 4 h, 37° C., 5×10^7 CFU/ml, read-out: Percent growth as compared to a growth control without antibiotics) of 111%, an activity at 5 µg/mL ([1]; Pseudomonas aeruginosa, 27853, 5 mcg (per milliliter), 4 h, 37° C., 5×10^7 CFU/ml, read-out: Percent growth as compared to a growth control without antibiotics) of 146% and an activity at 5 µg/mL ([2]; Staphylococcus aureus, 25923, 5 mcg (per milliliter), 4 h, 37° C., 5×10^7 CFU/ml, read-out: Percent growth as compared to a growth control without antibiotics) of 16%. The activity at 5 µg/mL ([3]; Enterococcus faecalis, 29212, 5 mcg (per milliliter), 4 h, 37° C., 5×10^7 CFU/ml, read-out: Percent growth as compared to a growth control without antibiotics) was 116%.

For `CN[C@H](CC(C)C)C(=O)N[C@H]1C(=O)N[C@@H](CC(N)=O)C(=O)N[C@H]2C(=O)N[C@H]3C(=O)N[C@H](C(=O)N[C@H](C(=O)O)c4cc(O)cc(O)c4-c4cc3ccc4O)[C@H](O)c3ccc(c(Cl)c3)Oc3cc2cc(c3O[C@@H]2O[C@H](CO)[C@@H](O)[C@H](O)[C@H]2O[C@H]2C[C@](C)(N)[C@H](O)[C@H](C)O2)Oc2ccc(cc2Cl)[C@H]1O` [Vancomycin], the activity at 10 µg/mL (Escherichia coli 29194; [8]) was 94%, the activity at 10 µg/mL [1, 9] was 106% and the activity at 10 µg/mL [2, 10] was 22%. It also gave an activity at 10 µg/mL [3, 11] of 15%.

Molecule `O=C(N[C@H](CO)[C@H](O)c1ccc([N+](=O)[O-])cc1)C(Cl)Cl` [Chloramphenicol] has an activity at 4 µg/mL (Escherichia coli 29194; Escherichia coli, 29194, 4 mcg (per milliliter), 4 h, 37° C., 5×10^7 CFU/ml, read-out: Percent growth as compared to a growth control without antibiotics) of 14%, an activity at 4 µg/mL [1, 9] of 88% and an activity at 4 µg/mL [2, 10] of 45%. The activity at 4 µg/mL [3, 11] was 19%.

With `CC1(C)S[C@@H]2[C@H](NC(=O)Cc3ccccc3)C(=O)N2[C@H]1C(=O)O` [Penicillin G] the “Percent growth as compared to a growth control without antibiotics” value (Escherichia coli 29194; [12]) was 103%, the “Percent growth as compared to a growth control without antibiotics” value [1, 12] was 149% and the “Percent growth as compared to a growth control without antibiotics” value [2, 12] was 45%. For the same molecule, the “Percent growth as compared to a growth control without antibiotics” value [3, 12] was 108%.

`CN(C)C1C(=O)C(C(N)=O)=C(O)C2(O)C(=O)C3=C(O)c4c(O)cccc4C(C)(O)C3CC12` (stereo not shown) [Tetracycline] gave an activity at 0.5 µg/mL (Escherichia coli 29194; [8]) of 76%, an activity at 0.5 µg/mL [1, 9] of 120% and an activity at 0.5 µg/mL [2, 10] of 15%. For the same molecule, the activity at 0.5 µg/mL [3, 11] was 109%.

Molecule `O=C1CN(/N=C/c2ccc([N+](=O)[O-])o2)C(=O)N1` [Nitrofurantoin] has an activity at 15 µg/mL (Escherichia coli 29194; Escherichia coli, 29194, 15 mcg (per milliliter), 4 h, 37° C., 5×10^7 CFU/ml, read-out: Percent growth as compared to a growth control without antibiotics) of 14%, an activity at 15 µg/mL ([1]; Pseudomonas aeruginosa, 27853, 15 mcg (per milliliter), 4 h, 37° C., 5×10^7 CFU/ml, read-out: Percent growth as compared to a growth control without antibiotics) of 112% and an activity at 15 µg/mL ([2]; Staphylococcus aureus, 25923, 15 mcg (per milliliter), 4 h, 37° C., 5×10^7 CFU/ml, read-out: Percent growth as compared to a growth control without antibiotics) of 33%. It also gave an activity at 15 µg/mL ([3]; Enterococcus faecalis, 29212, 15 mcg (per milliliter), 4 h, 37° C., 5×10^7 CFU/ml, read-out: Percent growth as compared to a growth control without antibiotics) of 110%.

For `O=C(O)CC(Br)C(=O)O` (stereo not shown) [bromosuccinic acid], the “Utilization as carbon source to produce CO2” value [6] was “able to utilize this carbon source only slightly to produce CO2”, the “pH of the sensor reached (change from 10)” value ([6]; four hours, 37° C., by eye) was 8.5 pH and the “Utilization as carbon source to produce CO2” value [7] was “preferred carbon source”. The “pH of the sensor reached (change from 10)” value ([7]; four hours, 37° C., by eye) was “approximately 6 pH”.
